Results as given in US11344533B2, “Autotaxin inhibitor compounds” (Sabre Therapeutics LLC, priority 2013, dated 2022).

These compounds were tested against human autotaxin (Homo sapiens (Human), UniProt Q13822) (assay: Human Autotaxin Assay (choline release from LPC, Hep3B conditioned media)). Conditions: ATX activity in concentrated conditioned media from Hep3B cells, substrate LPC.
Format: biochemical

Compound | IC50 [nM]
3-((6-chloro-2-cyclopropyl-1-(1-(6-(3-(3′,6′-dihydroxy-3-oxo-3H-spiro[isobenzofuran-1,9′-xanthen]-5-yl)ureido)hexyl)-1H-pyrazol-4-yl)-7-fluoro-1H-indol-3-yl)thio)-2-fluorobenzoic acid [Compound 1-131] | < 500
CCCn1cc(-n2c(Cl)c(Sc3cccc(C(=O)O)c3)c3ccc(Cl)cc32)cn1 [Compound 1-1, 3-((2,6-dichloro-1-(1-propyl-1H-pyrazol-4-yl)-1H-indol-3-yl)thio)benzoic acid] | < 500
CCCn1cc(-n2c(C#N)c(Sc3cccc(C(=O)O)c3)c3ccc(Cl)cc32)cn1 [Compound 1-3, 3-((6-chloro-2-cyano-1-(1-propyl-1H-pyrazol-4-yl)-1H-indol-3-yl)thio)benzoic acid] | < 500
CCCn1cc(-n2c(C3CC3)c(Sc3cccc(C(=O)O)c3)c3ccc(Cl)cc32)cn1 [Compound 1-4, 3-((6-chloro-2-cyclopropyl-1-(1-propyl-1H-pyrazol-4-yl)-1H-indol-3-yl)thio)benzoic acid] | < 500
CCCn1cc(-n2c(Cl)c(Sc3cccc(C(=O)O)c3)c3ccc(Cl)c(F)c32)cn1 [Compound 1-7, 3-((2,6-dichloro-7-fluoro-1-(1-propyl-1H-pyrazol-4-yl)-1H-indol-3-yl)thio)benzoic acid] | < 500
CCCn1cc(-n2c(C3CC3)c(Sc3cccc(C(=O)O)c3)c3ccc(Cl)c(F)c32)cn1 [Compound 1-10, 3-((6-chloro-2-cyclopropyl-7-fluoro-1-(1-propyl-1H-pyrazol-4-yl)-1H-indol-3-yl)thio)benzoic acid] | < 500
CCCn1cc(-n2c(C3CC3)c(Sc3cccc(C(=O)O)c3F)c3ccc(Cl)c(F)c32)cn1 [Compound 1-16, 3-((6-chloro-2-cyclopropyl-7-fluoro-1-(1-propyl-1H-pyrazol-4-yl)-1H-indol-3-yl)thio)-2-fluorobenzoic acid] | < 500
CCn1cc(-n2c(Cl)c(Sc3cccc(C(=O)O)c3F)c3ccc(Cl)c(F)c32)cn1 [Compound 1-31, 3-((2,6-dichloro-1-(1-ethyl-1H-pyrazol-4-yl)-7-fluoro-1H-indol-3-yl)thio)-2-fluorobenzoic acid] | < 500
Cn1cc(-n2c(Cl)c(Sc3cccc(C(=O)O)c3F)c3ccc(Cl)c(F)c32)cn1 [Compound 1-49, 3-((2,6-dichloro-7-fluoro-1-(1-methyl-1H-pyrazol-4-yl)-1H-indol-3-yl)thio)-2-fluorobenzoic acid] | < 500
CCn1cc(-n2c(C3CC3)c(Sc3cccc(C(=O)O)n3)c3ccc(Cl)c(F)c32)cn1 [Compound 1-92, 6((6-chloro-2-cyclopropyl-1-(1-ethyl-1H-pyrazol-4-yl)-7-fluoro-1H-indol-3-yl)thio)picolinic acid] | < 500
O=C(O)c1cccc(Sc2c(C3CC3)n(-c3cn[nH]c3)c3c(F)c(Cl)ccc23)c1F [Compound 1-119, 3-((6-chloro-2-cyclopropyl-7-fluoro-1-(1H-pyrazol-4-yl)-1H-indol-3-yl)thio)-2-fluorobenzoic acid] | < 500
O=C(O)c1cccc(Sc2c(C3CC3)n(-c3cnn(CCO)c3)c3c(F)c(Cl)ccc23)c1F [Compound 1-120, 3-((6-chloro-2-cyclopropyl-7-fluoro-1-(1-(2-hydroxyethyl)-1H-pyrazol-4-yl)-1H-indol-3-yl)thio)-2-fluorobenzoic acid] | < 500
NC(=O)OCCn1cc(-n2c(C3CC3)c(Sc3cccc(C(=O)O)c3F)c3ccc(Cl)c(F)c32)cn1 [Compound 1-121, 3-(1-(1-(2-(carbamoyloxy)ethyl)-1H-pyrazol-4-yl)-(6-chloro-2-cyclopropyl-7-fluoro-1H-indol-3-yl)thio)-2-fluorobenzoic acid] | < 500
NCCn1cc(-n2c(C3CC3)c(Sc3cccc(C(=O)O)c3F)c3ccc(Cl)c(F)c32)cn1 [Compound 1-122, 3-(1-(1-(2-aminoethyl)-1H-pyrazol-4-yl)-(6-chloro-2-cyclopropyl-7-fluoro-1H-indol-3-yl)thio)-2-fluorobenzoic acid] | < 500
NC(=O)NCCn1cc(-n2c(C3CC3)c(Sc3cccc(C(=O)O)c3F)c3ccc(Cl)c(F)c32)cn1 [Compound 1-123, 3-((6-chloro-2-cyclopropyl-7-fluoro-1-(1-(2-ureidoethyl)-1H-pyrazol-4-yl)-1H-indol-3-yl)thio)-2-fluorobenzoic acid] | < 500
O=C(O)CCCn1cc(-n2c(C3CC3)c(Sc3cccc(C(=O)O)c3F)c3ccc(Cl)c(F)c32)cn1 [Compound 1-124, 3-(1-(1-(3-carboxypropyl)-1H-pyrazol-4-yl)-(6-chloro-2-cyclopropyl-7-fluoro-1H-indol-3-yl)thio)-2-fluorobenzoic acid] | < 500
NC(=O)CCCn1cc(-n2c(C3CC3)c(Sc3cccc(C(=O)O)c3F)c3ccc(Cl)c(F)c32)cn1 [Compound 1-125, 3-(1-(1-(4-amino-4-oxobutyl)-1H-pyrazol-4-yl)-(6-chloro-2-cyclopropyl-7-fluoro-1H-indol-3-yl)thio)-2-fluorobenzoic acid] | < 500
O=C(O)c1cccc(Sc2c(C3CC3)n(-c3cnn(CC(F)(F)F)c3)c3c(F)c(Cl)ccc23)c1F [Compound 1-126, 3-((6-chloro-2-cyclopropyl-7-fluoro-1-(1-(2,2,2-trifluoroethyl)-1H-pyrazol-4-yl)-1H-indol-3-yl)thio)-2-fluorobenzoic acid] | < 500
NCCCCCCn1cc(-n2c(C3CC3)c(Sc3cccc(C(=O)O)c3F)c3ccc(Cl)c(F)c32)cn1 [Compound 1-128, 3-(1-(1-(6-aminohexyl)-1H-pyrazol-4-yl)-(6-chloro-2-cyclopropyl-7-fluoro-1H-indol-3-yl)thio)-2-fluorobenzoic acid] | < 500
O=C(O)c1cccc(Sc2c(Cl)n(-c3cccnc3)c3c(F)c(Cl)ccc23)c1F [Compound 2-1, 3-((2,6-dichloro-7-fluoro-1-(pyridin-3-yl)-1H-indol-3-yl)thio)-2-fluorobenzoic acid] | < 500
O=C(O)c1cccc(Sc2c(Br)n(-c3cccnc3)c3c(F)c(Cl)ccc23)c1F [Compound 2-2, 3-((2-bromo-6-chloro-7-fluoro-1-(pyridin-3-yl)-1H-indol-3-yl)thio)-2-fluorobenzoic acid] | < 500
O=C(O)c1cccc(Sc2c(C3CC3)n(-c3cccnc3)c3c(F)c(Cl)ccc23)c1F [Compound 2-3, 3-((6-chloro-2-cyclopropyl-7-fluoro-1-(pyridin-3-yl)-1H-indol-3-yl)thio)-2-fluorobenzoic acid] | < 500
CCn1cc(-n2c(C3CC3)c(Sc3cccc(CC(=O)O)c3F)c3ccc(Cl)c(F)c32)cn1 [Compound 2-7, 2-(3-((6-chloro-2-cyclopropyl-1-(1-ethyl-1H-pyrazol-4-yl)-7-fluoro-1H-indol-3-yl)thio)-2-fluorophenyl)acetic acid] | < 500

What follows are compounds tested on dog (assay: dog liver toxicity study). Conditions: dog liver toxicity study; liver markers ALT, AST, AlkP and bilirubin.
Protocol: In some embodiments, liver toxicity can be assessed in suitable in vivo assays. In some embodiments, liver toxicity is assessed by monitoring any increases in the levels of liver markers ALT, AST, AlkP and bilirubin.

Compound | liver markers
CCCn1cc(-n2c(Cl)c(Sc3cccc(C(=O)O)c3F)c3ccc(Cl)c(F)c32)cn1 [Compound 1-13, 3-((2,6-dichloro-7-fluoro-1-(1-propyl-1H-pyrazol-4-yl)-1H-indol-3-yl)thio)-2-fluorobenzoic acid] | did not exhibit the same effects

Same assay, conditions: dosed at 100 mpk for 5 days

Compound | increases in liver markers ALT, AST, AlkP and bilirubin
CCCn1cc(-n2c(Cl)c(Sc3cccc(C(=O)O)c3F)c3ccc(Cl)c(F)c32)cn1 [Compound 1-13, 3-((2,6-dichloro-7-fluoro-1-(1-propyl-1H-pyrazol-4-yl)-1H-indol-3-yl)thio)-2-fluorobenzoic acid] | no increases in liver markers ALT, AST, AlkP and bilirubin were observed
